Experimental data reported in US12098153B2, “Small molecule inhibitors targeting Clostridioides difficile sporulation” (UNIVERSITY OF SOUTH FLORIDA, priority 2021, dated 2024).
pIC50: −log10 of the molar value.

These molecules were tested against T1, PBP3 (CDR20291_1067; soluble construct) (Clostridioides difficile, UniProt A0A9R0CE13) (assay: Bacillin (bocillin) inhibition assay, PBP3). Conditions: FIGS. 6A-6F; 1 μM protein, 15 min preincubation at 37° C., 20 μM bocillin.
T1 construct: modified pETGST vector with TEV site, E. coli BL21(DE3) pLysS; tag removed with TEV
Assay type: biochemical
Method: FIGS. 6A-6F show the crystal structure of PBP3 and the chemical structures of DBO sporulation inhibitors, wherein * indicates >50%, ** indicates >90%, and ***>95%.
(§1) Reactions were performed in a 96-well polystyrene plate with a final volume of 60 μl at 37° C. in 1× tris-buffered saline (20 mM Tris, 150 mM NaCl). […] Protein was then diluted and added to the well for a final concentration of 1 μM and incubated for 15 minutes at 37° C. 1 μL of bocillin (BOCILLIN™ FL Penicillin, Sodium Salt, Thermo Fisher Scientific) was added to each well for a final concentration of 20 μM, and incubated for 10 minutes at 37° C. Reactions were killed with 10 μL of 6×SDS loading buffer and pooled or directly loaded onto a 15-well Novex Wedgewell 8% Tris-Glycine Gels and ran at 175 V for ˜1 hour. Gels were then imaged (Biorad) for 6 seconds with the fluorescein blot filter setting and analyzed using ImageJ. All values were normalized to background intensity and divided by the average of three control intensities (no inhibitor) for % inhibition value. Assays were performed in duplicate or triplicate and IC50 values were calculated using a 3-parameter nonlinear regression.
(§2) The coding sequence corresponding to the soluble constructs of CDR20291_1067 (PBP3), CDR20291_0985 (PBP2) and CDR20291_2544 (CdSpoVD) were amplified from C. difficile R20291 genomic DNA The expression vector was modified from pETGST, in which the thrombin cleavage site was replaced by TEV (named pETGSTTEV) or ULP1 (named pETGSTSUMO) cleavage site. The vector was digested and the PCR fragments for each protein was inserted into the multi-clone site accordingly. SpovD 38-583 inserted into the NheI/XhoI site of the pETGSTSUMO vector. Cloned vector was then transformed into BL21(DE3) pLysS Escherichia coli (E. coli). Standard overnight cultures were grown in LB media containing chloramphenicol and kanamycin and used to inoculate 1 L LB cultures.
Cultures were grown until the optical density (OD600) reached ˜0.7. Protein expression was then induced with 0.5 mM isopropyl-β-d-thiogalactopyranoside (IPTG) overnight at 20° C. Cells were harvested via centrifugation at 4000×g for 10 minutes at 4° C. The cell pellet was suspended with a solution of 20 mM Tris pH 8.0, 200 mM NaCl, 20 mM imidazole, and one dissolved Thermo Scientific™ Pierce Protease Inhibitor Tablets. Cells were lysed with a sonicator using a 10 second sonication/15 second rest cycle for 15 minutes. Cell lysate was centrifuged at 45,000×g for 35 minutes and supernatant was loaded onto a HisTrap affinity column (GE Healthcare). A linear gradient of buffer B (20 mM Tris pH 8.0, 300 mM NaCl, 500 mM imidazole, and 10% glycerol) was applied to elute the recombinant protein which usually occurred at 30% buffer B. These fractions were pooled and buffer exchanged three times into protease buffer (20 mM Tris pH 8.0, 10% glycerol) using an Amicon Ultra centrifugal filter (Sigma-Aldrich). Purified His6-tagged TEV protease was added to all proteins at a 1:20 ratio except for CdSpoVD and incubated overnight at 4° C. Pure His6-tagged ULP1 protease was added to CdSpoVD at 1:20 ratio and incubated overnight at 4° C. The digested protein was re-loaded onto the HisTrap affinity column. Flowthrough was collected, concentrated, and loaded to a HiLoad 16/60 Superdex 75 size exclusion column (GE Healthcare) where it ran at a flow rate of 0.5 ml/min. Peak fractions were combined and purity assessed (>95%) with gel-electrophoresis. […]

T1 sequence (A0A9R0CE13 entry or part of it): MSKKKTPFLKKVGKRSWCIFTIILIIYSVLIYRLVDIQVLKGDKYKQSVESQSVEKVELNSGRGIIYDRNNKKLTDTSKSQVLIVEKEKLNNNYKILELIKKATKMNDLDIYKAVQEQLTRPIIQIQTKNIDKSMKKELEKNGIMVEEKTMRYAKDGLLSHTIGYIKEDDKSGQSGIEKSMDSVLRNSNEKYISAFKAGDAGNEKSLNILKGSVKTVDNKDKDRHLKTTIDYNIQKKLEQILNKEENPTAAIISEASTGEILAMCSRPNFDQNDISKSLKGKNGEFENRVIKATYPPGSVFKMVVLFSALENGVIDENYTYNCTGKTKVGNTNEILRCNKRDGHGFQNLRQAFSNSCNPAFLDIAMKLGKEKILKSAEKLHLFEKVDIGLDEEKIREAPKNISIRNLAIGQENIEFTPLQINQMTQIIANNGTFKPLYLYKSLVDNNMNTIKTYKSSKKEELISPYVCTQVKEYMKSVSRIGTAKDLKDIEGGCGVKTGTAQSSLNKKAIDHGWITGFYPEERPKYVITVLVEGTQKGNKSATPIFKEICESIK

pIC50	SMILES
5.70	O=C(Nc1ccccc1)[C@@H]1CC[C@@H]2CN1C(=O)N2OS(=O)(=O)O [Spo6]
5.31	O=C(Nc1ccccc1)[C@H](NC(=O)[C@@H]1CC[C@@H]2CN1C(=O)N2OS(=O)(=O)O)c1ccccc1 [Spo9]
6.16	O=C(Nc1ccc(-n2cccn2)cc1)[C@@H]1CC[C@@H]2CN1C(=O)N2OS(=O)(=O)O [Spo12]

The next lines start with the molecule.

SMILES	pIC50
NC(=O)[C@@H]1CC[C@@H]2CN1C(=O)N2OS(=O)(=O)O [Avibactam]	5.27
O=C(Nc1cccc2ccccc12)[C@@H]1CC[C@@H]2CN1C(=O)N2OS(=O)(=O)O [Spo11]	5.65

What follows are molecules tested against T2, SpoVD (CdSpoVD, CDR20291_2544; soluble construct SpovD 38-583) (Clostridioides difficile, UniProt A0A9R0BM53) (assay: Bacillin (bocillin) inhibition assay, SpoVD). Conditions: not given.
T2 construct: pETGSTSUMO vector (NheI/XhoI), E. coli BL21(DE3) pLysS; fusion tag removed with ULP1
Assay type: biochemical
Method: FIG. 2 is a table of IC50 values of select $-lactam antibiotics against SpoVD, their percentage inhibition of sporulation, and the concentration at which they were tested (½ MIC).
FIGS. 4A-4F show chemical structures of DPO sporulation inhibitors, their biochemical inhibition against SpoVD and their in vitro sporulation inhibition, wherein * indicates >50%, ** indicates >90%, and ***>95%.
as §1, §2
Cultures were grown until the optical density (OD600) reached ˜0.7. Protein expression was then induced with 0.5 mM isopropyl-β-d-thiogalactopyranoside (IPTG) overnight at 20° C. Cells were harvested via centrifugation at 4000×g for 10 minutes at 4° C. The cell pellet was suspended with a solution of 20 mM Tris pH 8.0, 200 mM NaCl, 20 mM imidazole, and one dissolved Thermo Scientific™ Pierce Protease Inhibitor Tablets. Cells were lysed with a sonicator using a 10 second sonication/15 second rest cycle for 15 minutes. Cell lysate was centrifuged at 45,000×g for 35 minutes and supernatant was loaded onto a HisTrap affinity column (GE Healthcare). A linear gradient of buffer B (20 mM Tris pH 8.0, 300 mM NaCl, 500 mM imidazole, and 10% glycerol) was applied to elute the recombinant protein which usually occurred at 30% buffer B. These fractions were pooled and buffer exchanged three times into protease buffer (20 mM Tris pH 8.0, 10% glycerol) using an Amicon Ultra centrifugal filter (Sigma-Aldrich). Purified His6-tagged TEV protease was added to all proteins at a 1:20 ratio except for CdSpoVD and incubated overnight at 4° C. Pure His6-tagged ULP1 protease was added to CdSpoVD at 1:20 ratio and incubated overnight at 4° C. The digested protein was re-loaded onto the HisTrap affinity column. Flowthrough was collected, concentrated, and loaded to a HiLoad 16/60 Superdex 75 size exclusion column (GE Healthcare) where it ran at a flow rate of 0.5 ml/min. Peak fractions were combined and purity assessed (>95%) with gel-electrophoresis. The identity of each enzyme was independently characterized with gel-electrophoresis, native-mass spectrometry, bocillin or nitrocefin binding, and/or X-ray crystallography.

T2 sequence (A0A9R0BM53 entry or part of it): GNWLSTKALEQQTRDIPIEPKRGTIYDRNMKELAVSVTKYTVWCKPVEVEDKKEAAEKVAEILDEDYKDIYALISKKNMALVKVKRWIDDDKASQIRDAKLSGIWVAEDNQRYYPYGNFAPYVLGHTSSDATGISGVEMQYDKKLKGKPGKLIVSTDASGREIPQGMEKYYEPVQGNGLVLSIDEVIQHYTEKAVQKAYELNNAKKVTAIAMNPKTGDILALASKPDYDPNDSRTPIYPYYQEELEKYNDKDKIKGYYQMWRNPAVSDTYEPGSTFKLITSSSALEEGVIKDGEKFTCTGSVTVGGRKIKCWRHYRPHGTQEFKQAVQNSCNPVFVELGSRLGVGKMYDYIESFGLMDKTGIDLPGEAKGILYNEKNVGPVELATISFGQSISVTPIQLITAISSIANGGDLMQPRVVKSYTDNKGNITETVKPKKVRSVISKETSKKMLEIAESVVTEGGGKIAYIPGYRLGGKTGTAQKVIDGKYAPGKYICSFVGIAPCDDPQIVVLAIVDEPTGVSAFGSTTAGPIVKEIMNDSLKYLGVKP

SMILES	pIC50
CC1(C)S[C@@H]2[C@H](NC(=O)[C@H](N)c3ccccc3)C(=O)N2[C@H]1C(=O)O [Ampicillin]	5.60
C[C@H]1[C@H](NC(=O)/C(=N\OC(C)(C)C(=O)O)c2csc(N)n2)C(=O)N1S(=O)(=O)O [Aztreonam]	5.87
CC(=O)OCC1=C(C(=O)O)N2C(=O)[C@@H](NC(=O)Cc3cccs3)[C@H]2SC1 [Cefalothin]	6.57
CC(C)(O/N=C(\C(=O)N[C@@H]1C(=O)N2C(C(=O)[O-])=C(C[n+]3ccccc3)CS[C@H]12)c1csc(N)n1)C(=O)O [Ceftazidime]	5.61

Same assay, conditions: FIG. 2; 1 μM protein, 15 min preincubation at 37° C., 20 μM bocillin; read-out: SpoVD IC50

pIC50	SMILES
4.20	Nc1nc(/C(=N/O)C(=O)N[C@@H]2C(=O)N3C(C(=O)O)=C(/C=C4\CCN([C@@H]5CCNC5)C4=O)CS[C@H]23)ns1 [Ceftobiprole]
5.21	Cc1onc(-c2ccccc2Cl)c1C(=O)N[C@@H]1C(=O)N2[C@@H]1SC(C)(C)[C@@H]2C(=O)O [Cloxacillin]
3.99	O=C(Nc1ccccc1)[C@@H]1CC[C@@H]2CN1C(=O)N2OS(=O)(=O)O [Spo6]
4.28	O=C(NCc1ccccc1)[C@@H]1CC[C@@H]2CN1C(=O)N2OS(=O)(=O)O [Spo7]

Second part, the molecule before the results:

SMILES	pIC50
NC(=O)[C@@H]1CC[C@@H]2CN1C(=O)N2OS(=O)(=O)O [Avibactam]	3.78
CO/N=C(\C(=O)N[C@@H]1C(=O)N2C(C(=O)O)=C(COC(C)=O)CS[C@H]12)c1csc(N)n1 [Cefotaxime]	5.11
CO[C@@]1(NC(=O)Cc2cccs2)C(=O)N2C(C(=O)O)=C(COC(N)=O)CS[C@@H]21 [Cefoxitin]	6.03
O=C(CNC(=O)[C@@H]1CC[C@@H]2CN1C(=O)N2OS(=O)(=O)O)c1ccccc1 [Spo8]	4.20

Same assay, conditions: FIGS. 4A-4F; 1 μM protein, 15 min preincubation at 37° C., 20 μM bocillin; read-out: SpoVD IC50

pIC50	SMILES
4.88	O=C(Nc1ccccc1)[C@H](NC(=O)[C@@H]1CC[C@@H]2CN1C(=O)N2OS(=O)(=O)O)c1ccccc1 [Spo9]
5.41	O=C(Nc1ccccc1)[C@@H](Cc1ccccc1)NC(=O)[C@@H]1CC[C@@H]2CN1C(=O)N2OS(=O)(=O)O [Spo10]
